From US9950048B2, “Immunogenic epitopes for immunotherapy” (immatics biotechnologies GmbH, priority 2007, dated 2018)
Ends that are not written are not given here.

Experiments:
[1] = target: HLA-A*0201 (Homo sapiens, UniProt P04439, D140Y/D185E/D98H/E176V/E277Q/G131W/G231S/I119V/I121R/I166T/I218V/L300P/L318F/N151K/N90K/P208A/P217A/Q86G/Q94H/R138H/R169H/T345S); experiment: HLA-A*0201 binding assay, ELISA EpI Kit (Example 4); settings: for binding affinity to HLA-A*0201 (KD), in words: FIG. 4, lower KD = higher affinity
Protocol: FIG. 4 depicts binding affinities of selected peptides to HLA-A*0201 as measured by EpI ELISA according to Sylvester-Hvid, C, et al., 2002, Tissue Antigens, 59, 251-258). The analysis was limited to peptides known to be MHC class I binding peptides. Affinities of HLA-DR binding peptides cannot be measured with this assay.
The HLA binding assay was performed using the ELISA EpI Kit (obtained from Sceren Buus, Institute of Medical Microbiology and Immunology at the University of Copenhagen, Denmark) according to Sylvester-Hvid (Sylvester-Hvid, at al., 2002, Tissue Antigens, 59, 251-258) and the ELISA EpI Kit manual by the manufacturer.
Peptides were dissolved in DMSO+0.5% TFA (Merck, Darmstadt, Germany) at a concentration of 10 mg/ml. The highest peptide working solution used in this assay was 200 μM, therefore the stock solution was diluted 1:50 in a peptide-dilution buffer (PBS with 0.1% Lutrol-F68 and 10 mg/1 Phenol red) to a final volume of 100 μl. A serial five-fold dilution was performed with peptide-dilution buffer.
According to the manual, a 2-fold concentrated HLA-A*0201 solution was prepared by mixing 3×pH buffer (pH 6.6), Lutrol-F68, human β2m, recombinant HLA-A*0201 (all included in the ELISA EpI Kit) with PBS.
For the refolding process, 15 μl of peptide serial dilutions and 15 μl of the 2-fold concentrated MHC mix were mixed in 96-well plates (Nunc, Rochester, N.Y., USA) and incubated at 18° C. for 48 hours.
Maxisorp plates (Nunc, Rochester, N.Y.) were coated with 5 μg/ml w6/32 antibody in coating buffer (pH 9.6), incubated for 24 h at 4° C. and blocked with 5% skim milk powder (Merck, Darmstadt, Germany) in PBS over night at 4° C.
MHC complex standard (ELISA EpI Kit) was diluted with 2% skim milk powder in PBS (SMP/PBS) to a concentration of 10 nM. A serial 3.16-fold dilution was prepared and transferred to the coated and blocked Maxisorp plate. […] Plates were read at OD450 nm using the VERSAmax ELISA-Reader (Molecular Devices, Sunnyvale, Calif., USA). […]

[2] = system: sorted CD8+ NOX-001 tetramer+ T-cell line; experiment: IFNγ ELISPOT functionality test of sorted specific CD8+ T-cell line; type: cell-based, human; settings: FIG. 8
Protocol: FIGS. 8A and 8B depict the ELISPOT analysis of IFNγ production by T-cell lines upon in vitro restimulation with the NOX-001 peptide. FIG. 8A is T-cell line 7+ from donor HBC-154 (sorted CD8+ NOX-001 tetramer+). FIG. 8B is T-cell line 7—from donor HBC-154 (sorted CD8+ NOX-001 tetramer+).
Sorted CD8+ NOX-001 tetramer+(A.) and CD8+ NOX-001 tetramer-(B.) cells were analysed by IFNγ ELISPOT after restimulation with irrelevant (MLA-001) (upper wells) and relevant (NOX-001) (lower wells) peptide (10 μg/ml). Numbers indicate the count of positive spots.
To determine their functionality, IFNγ production was assessed by ELISPOT (IFNγ ELISPOT Set, BD, Germany) after restimulation of the cells with the corresponding peptide. Additionally, cell-mediated cytotoxicity of specific CTLs was investigated by killing of tumor cell lines using the LIVE/DEAD cell-mediated cytotoxicity Kit (L7010, Invitrogen, Germany). Both assays were performed according to manufacturer's instructions, except noted otherwise.

[3] = Particle size/shape measurement and analytical HPLC of reconstituted IMA910 suspension; type: physicochemical; settings: sodium hydrogen carbonate (4.2%)
Protocol: Particle size distribution and particle shape measurement of the particles obtained after reconstitution have been performed by capturing direct images of each individual particle in the range of 0.25 to 100 μm followed by image analysis.
Furthermore, analytical HPLC was performed for a closer characterization of the obtained suspension.
IMA910 is dissolved in 700 μL sodium hydrogen carbonate (4.2%).

Sequence	binding affinity to HLA-A*0201 (KD), in words [1]	IFNγ production of T-cell line after restimulation with peptide [2]	solubility in the solution used for reconstitution of IMA910 [3]	fold lower KD value compared with the majority of peptides ([1]; FIG. 4) [fold]
ILAPVILYI [NOX-001]	slightly higher binding affinity	specifically expressing IFNγ after restimulation with this peptide	almost insoluble	–
ALFVRLLALA [TGFBI-001]	strongest binder	–	almost insoluble	100
